# Assays:
# [1] = biological target: T1, Glycogen synthase kinase-3 beta (Homo sapiens, UniProt P49841); assay: Inhibition of GSK3-beta
# Target sequence in this assay (P49841 whole entry): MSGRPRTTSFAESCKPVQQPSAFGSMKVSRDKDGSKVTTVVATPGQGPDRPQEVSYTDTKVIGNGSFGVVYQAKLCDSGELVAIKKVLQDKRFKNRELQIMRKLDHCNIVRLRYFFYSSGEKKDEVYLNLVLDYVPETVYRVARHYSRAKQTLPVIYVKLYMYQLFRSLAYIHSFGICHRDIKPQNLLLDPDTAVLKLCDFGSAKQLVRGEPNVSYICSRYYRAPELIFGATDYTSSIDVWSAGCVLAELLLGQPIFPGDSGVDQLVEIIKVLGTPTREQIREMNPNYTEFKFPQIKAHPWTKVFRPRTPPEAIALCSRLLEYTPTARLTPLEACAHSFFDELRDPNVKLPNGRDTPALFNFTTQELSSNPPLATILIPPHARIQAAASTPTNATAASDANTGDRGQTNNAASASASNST
# [2] = Inhibition of Cdk4/cyclin D1
# [3] = biological target: Proto-oncogene tyrosine-protein kinase Src (Homo sapiens, UniProt P12931); assay: Inhibition of Src; conditions: read-out: Log IC50 (converted)
# [4] = biological target: Calcium/calmodulin-dependent protein kinase kinase 2 (Homo sapiens, UniProt Q96RR4)
# [5] = biological target: Cyclin-dependent kinase-like 1 (Homo sapiens) (UniProt Q00532)
# [6] = biological target: Dual specificity protein kinase CLK2 (Homo sapiens) (UniProt P49760)
# [7] = biological target: Casein kinase I isoform gamma-3 (Homo sapiens) (UniProt Q9Y6M4)
# [8] = biological target: T1, Glycogen synthase kinase-3 beta
# Target sequence in this assay (P49841 whole entry, looked up): as the sequence (P49841 whole entry) above
# [9] = biological target: Dual specificity mitogen-activated protein kinase kinase 2 (Homo sapiens, UniProt P36507)
# [10] = biological target: T2, Dual specificity mitogen-activated protein kinase kinase 6 (Homo sapiens) (UniProt P52564)
# T2 sequence (whole entry): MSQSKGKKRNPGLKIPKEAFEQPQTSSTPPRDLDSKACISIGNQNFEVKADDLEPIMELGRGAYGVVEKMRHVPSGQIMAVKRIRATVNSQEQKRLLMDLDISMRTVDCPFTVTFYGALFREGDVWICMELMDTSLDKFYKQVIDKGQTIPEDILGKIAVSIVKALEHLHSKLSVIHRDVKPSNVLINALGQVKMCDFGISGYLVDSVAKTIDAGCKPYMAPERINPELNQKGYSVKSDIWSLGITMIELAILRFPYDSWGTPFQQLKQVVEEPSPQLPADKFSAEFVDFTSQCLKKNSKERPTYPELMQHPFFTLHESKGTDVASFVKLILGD
# [11] = biological target: Serine/threonine-protein kinase Nek6 (Homo sapiens) (UniProt Q9HC98)
# [12] = biological target: STE20-like serine/threonine-protein kinase (Homo sapiens) (UniProt Q9H2G2)
# [13] = biological target: T3, Serine/threonine-protein kinase 4 (Homo sapiens) (UniProt Q13043)
# T3 sequence (whole entry): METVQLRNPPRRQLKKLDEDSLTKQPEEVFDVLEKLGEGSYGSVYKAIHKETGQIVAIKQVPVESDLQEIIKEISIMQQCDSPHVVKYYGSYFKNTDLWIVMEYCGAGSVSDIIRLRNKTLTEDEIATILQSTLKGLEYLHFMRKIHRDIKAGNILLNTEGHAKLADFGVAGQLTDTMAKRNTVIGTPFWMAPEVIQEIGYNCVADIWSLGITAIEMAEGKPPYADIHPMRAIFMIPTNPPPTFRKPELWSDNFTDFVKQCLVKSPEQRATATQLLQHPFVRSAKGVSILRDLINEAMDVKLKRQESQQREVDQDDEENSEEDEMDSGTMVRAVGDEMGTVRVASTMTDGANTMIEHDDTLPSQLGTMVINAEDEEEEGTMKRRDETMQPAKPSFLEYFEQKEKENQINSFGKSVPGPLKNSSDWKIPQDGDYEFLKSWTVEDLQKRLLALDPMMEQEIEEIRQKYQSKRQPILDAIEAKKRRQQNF
# [14] = biological target: Myosin light chain kinase, smooth muscle (Homo sapiens, UniProt Q15746); assay: Inhibition of myosin light chain kinase
# [15] = Binding affinity at PKC
# [16] = biological target: T4, Protein kinase C epsilon type (Homo sapiens, UniProt Q02156); assay: Inhibition of PKCepsilon
# T4 sequence (Q02156 whole entry): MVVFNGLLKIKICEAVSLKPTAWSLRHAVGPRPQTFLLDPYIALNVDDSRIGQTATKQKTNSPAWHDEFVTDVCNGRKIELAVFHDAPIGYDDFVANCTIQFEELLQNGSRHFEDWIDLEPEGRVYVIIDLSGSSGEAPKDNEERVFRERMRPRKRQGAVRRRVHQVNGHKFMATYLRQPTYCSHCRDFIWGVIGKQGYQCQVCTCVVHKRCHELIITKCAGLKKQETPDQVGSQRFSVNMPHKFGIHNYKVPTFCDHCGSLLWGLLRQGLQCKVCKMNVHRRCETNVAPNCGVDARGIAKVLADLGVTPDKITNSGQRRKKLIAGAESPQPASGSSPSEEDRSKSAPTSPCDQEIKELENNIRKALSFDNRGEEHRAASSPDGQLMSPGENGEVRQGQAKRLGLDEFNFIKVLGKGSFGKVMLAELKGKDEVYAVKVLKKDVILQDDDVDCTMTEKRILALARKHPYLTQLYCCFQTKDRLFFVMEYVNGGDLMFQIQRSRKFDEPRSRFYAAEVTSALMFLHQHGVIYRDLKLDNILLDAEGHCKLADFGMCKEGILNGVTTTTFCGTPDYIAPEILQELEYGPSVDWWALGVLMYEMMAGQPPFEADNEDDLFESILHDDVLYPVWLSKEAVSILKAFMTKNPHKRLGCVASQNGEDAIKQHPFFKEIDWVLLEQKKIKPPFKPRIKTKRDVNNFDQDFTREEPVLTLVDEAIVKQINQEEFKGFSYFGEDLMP
# [17] = biological target: Mast/stem cell growth factor receptor Kit (Homo sapiens, UniProt P10721); assay: Inhibition of c-kit
# [18] = biological target: Mitogen-activated protein kinase 3 (Homo sapiens, UniProt P27361); assay: Inhibition of ERK1
# [19] = biological target: T5, Serine/threonine-protein kinase Chk1 (Homo sapiens, UniProt O14757); assay: Inhibition of Chk1
# T5 sequence (O14757 whole entry): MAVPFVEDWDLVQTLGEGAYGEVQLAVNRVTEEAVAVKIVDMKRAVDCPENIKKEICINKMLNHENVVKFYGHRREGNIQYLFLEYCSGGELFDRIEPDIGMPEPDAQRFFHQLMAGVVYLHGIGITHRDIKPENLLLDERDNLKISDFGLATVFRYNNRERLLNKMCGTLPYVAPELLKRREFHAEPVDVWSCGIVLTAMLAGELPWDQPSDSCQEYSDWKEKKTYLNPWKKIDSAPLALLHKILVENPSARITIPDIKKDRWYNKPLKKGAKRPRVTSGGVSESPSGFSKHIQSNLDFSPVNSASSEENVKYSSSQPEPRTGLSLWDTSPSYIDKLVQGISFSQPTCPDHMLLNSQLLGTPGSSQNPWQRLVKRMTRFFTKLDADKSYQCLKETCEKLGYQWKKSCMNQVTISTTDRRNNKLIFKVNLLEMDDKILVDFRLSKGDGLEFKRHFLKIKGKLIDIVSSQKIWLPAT
# Serine/threonine-protein kinase Nek6 (Homo sapiens), sequence (Q9HC98 whole entry): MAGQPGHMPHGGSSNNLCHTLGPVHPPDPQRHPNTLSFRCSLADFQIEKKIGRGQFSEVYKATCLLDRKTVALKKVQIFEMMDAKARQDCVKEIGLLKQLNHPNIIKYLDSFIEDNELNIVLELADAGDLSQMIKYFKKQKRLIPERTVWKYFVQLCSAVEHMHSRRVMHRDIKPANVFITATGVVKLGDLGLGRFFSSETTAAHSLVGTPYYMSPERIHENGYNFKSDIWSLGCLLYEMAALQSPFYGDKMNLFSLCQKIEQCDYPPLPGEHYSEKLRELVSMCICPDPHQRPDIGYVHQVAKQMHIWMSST
# Dual specificity protein kinase CLK2 (Homo sapiens), sequence (P49760 whole entry, looked up, canonical isoform): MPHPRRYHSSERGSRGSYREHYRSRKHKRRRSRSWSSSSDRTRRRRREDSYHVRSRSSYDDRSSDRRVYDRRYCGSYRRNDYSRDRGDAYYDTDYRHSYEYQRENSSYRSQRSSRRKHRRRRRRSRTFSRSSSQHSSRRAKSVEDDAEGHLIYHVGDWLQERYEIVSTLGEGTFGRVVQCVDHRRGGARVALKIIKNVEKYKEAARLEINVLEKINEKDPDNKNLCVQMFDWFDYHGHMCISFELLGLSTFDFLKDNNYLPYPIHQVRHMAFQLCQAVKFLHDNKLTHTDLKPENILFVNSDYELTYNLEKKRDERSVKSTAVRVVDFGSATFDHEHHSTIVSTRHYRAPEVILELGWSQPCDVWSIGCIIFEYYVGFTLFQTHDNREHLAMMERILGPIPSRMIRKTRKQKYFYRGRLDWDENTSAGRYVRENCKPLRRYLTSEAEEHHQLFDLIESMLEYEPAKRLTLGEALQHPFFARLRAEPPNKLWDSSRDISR
# Calcium/calmodulin-dependent protein kinase kinase 2, sequence (Q96RR4 2-588 limits assumed): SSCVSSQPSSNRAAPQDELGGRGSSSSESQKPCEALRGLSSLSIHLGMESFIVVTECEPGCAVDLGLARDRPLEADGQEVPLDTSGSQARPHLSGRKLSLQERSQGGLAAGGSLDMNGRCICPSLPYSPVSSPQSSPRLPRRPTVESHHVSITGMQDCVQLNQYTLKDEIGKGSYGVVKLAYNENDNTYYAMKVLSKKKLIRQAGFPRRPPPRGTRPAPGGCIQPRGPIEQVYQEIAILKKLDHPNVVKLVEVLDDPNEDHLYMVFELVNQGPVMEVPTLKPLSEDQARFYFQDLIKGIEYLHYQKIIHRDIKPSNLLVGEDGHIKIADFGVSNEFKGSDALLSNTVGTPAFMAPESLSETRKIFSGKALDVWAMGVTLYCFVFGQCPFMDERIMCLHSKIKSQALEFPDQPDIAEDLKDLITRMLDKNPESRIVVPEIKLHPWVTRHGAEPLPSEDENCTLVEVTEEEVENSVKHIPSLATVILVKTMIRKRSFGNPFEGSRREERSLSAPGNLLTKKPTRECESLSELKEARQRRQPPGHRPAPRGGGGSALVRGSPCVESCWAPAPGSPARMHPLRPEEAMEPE
# Dual specificity mitogen-activated protein kinase kinase 2, sequence (P36507 whole entry): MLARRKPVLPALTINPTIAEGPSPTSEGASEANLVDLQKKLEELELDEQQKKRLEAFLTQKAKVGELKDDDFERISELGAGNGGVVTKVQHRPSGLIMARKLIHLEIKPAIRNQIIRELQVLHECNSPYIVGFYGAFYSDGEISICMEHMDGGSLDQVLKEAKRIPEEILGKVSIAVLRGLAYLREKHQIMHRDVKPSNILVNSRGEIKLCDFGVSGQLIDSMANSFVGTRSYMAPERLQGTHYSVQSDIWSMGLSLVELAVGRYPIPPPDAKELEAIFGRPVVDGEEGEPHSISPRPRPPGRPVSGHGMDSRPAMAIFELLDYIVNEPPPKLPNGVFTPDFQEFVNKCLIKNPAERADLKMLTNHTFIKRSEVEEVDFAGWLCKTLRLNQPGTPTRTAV
# Casein kinase I isoform gamma-3 (Homo sapiens), sequence (Q9Y6M4 whole entry, looked up, canonical isoform): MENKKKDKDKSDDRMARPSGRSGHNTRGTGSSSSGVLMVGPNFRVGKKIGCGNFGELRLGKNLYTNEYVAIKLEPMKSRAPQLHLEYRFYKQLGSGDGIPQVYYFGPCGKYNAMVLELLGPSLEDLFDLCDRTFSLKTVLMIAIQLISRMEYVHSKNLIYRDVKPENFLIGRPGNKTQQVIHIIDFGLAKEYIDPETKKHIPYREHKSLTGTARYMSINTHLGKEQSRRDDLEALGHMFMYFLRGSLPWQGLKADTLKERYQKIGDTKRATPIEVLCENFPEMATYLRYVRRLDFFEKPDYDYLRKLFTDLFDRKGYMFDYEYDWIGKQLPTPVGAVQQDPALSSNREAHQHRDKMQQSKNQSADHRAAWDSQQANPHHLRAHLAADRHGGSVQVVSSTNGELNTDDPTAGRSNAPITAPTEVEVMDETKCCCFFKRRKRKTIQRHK
# Cyclin-dependent kinase-like 1 (Homo sapiens), sequence (Q00532 whole entry): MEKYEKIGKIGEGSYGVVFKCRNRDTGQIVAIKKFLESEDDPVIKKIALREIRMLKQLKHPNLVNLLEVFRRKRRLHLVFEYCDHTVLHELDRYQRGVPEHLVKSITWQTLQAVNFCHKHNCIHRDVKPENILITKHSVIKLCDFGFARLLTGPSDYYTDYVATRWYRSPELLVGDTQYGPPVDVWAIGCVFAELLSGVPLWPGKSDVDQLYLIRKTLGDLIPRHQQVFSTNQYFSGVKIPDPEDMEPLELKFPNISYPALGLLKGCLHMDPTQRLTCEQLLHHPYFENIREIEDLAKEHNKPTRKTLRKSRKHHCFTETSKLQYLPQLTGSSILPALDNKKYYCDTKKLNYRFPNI
# STE20-like serine/threonine-protein kinase (Homo sapiens), sequence (Q9H2G2 whole entry, looked up): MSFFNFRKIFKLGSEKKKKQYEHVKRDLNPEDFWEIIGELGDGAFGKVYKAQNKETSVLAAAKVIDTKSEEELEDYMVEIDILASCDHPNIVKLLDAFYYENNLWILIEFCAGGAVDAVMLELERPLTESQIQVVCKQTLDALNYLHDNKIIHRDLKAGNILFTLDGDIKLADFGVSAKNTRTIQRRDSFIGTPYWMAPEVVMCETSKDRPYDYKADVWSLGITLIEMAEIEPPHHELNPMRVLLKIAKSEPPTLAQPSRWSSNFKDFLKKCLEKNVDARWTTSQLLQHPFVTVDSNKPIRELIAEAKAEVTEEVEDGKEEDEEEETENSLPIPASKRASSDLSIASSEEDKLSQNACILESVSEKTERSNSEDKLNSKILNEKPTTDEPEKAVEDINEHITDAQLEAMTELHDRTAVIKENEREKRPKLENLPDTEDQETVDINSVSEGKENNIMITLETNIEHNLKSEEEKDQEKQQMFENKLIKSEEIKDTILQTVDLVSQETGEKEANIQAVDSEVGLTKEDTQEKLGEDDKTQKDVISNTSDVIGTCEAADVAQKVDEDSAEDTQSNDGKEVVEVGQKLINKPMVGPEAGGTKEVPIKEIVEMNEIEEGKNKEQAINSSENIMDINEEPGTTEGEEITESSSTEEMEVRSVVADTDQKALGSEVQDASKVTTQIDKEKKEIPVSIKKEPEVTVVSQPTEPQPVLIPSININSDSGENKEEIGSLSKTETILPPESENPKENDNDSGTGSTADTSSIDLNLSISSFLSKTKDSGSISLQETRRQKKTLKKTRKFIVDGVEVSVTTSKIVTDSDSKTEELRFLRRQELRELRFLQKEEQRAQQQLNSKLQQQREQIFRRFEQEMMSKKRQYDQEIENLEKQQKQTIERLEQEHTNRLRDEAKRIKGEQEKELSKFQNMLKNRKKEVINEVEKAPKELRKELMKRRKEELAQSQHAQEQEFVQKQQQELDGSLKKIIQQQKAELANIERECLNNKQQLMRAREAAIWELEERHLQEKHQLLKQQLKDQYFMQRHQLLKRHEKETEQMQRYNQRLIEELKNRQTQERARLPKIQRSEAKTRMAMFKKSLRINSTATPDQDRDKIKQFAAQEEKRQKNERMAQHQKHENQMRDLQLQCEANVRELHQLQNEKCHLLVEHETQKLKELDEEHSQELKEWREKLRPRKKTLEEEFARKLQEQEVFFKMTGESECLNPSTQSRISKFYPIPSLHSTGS
# Proto-oncogene tyrosine-protein kinase Src, sequence (P12931 2-536 limits assumed): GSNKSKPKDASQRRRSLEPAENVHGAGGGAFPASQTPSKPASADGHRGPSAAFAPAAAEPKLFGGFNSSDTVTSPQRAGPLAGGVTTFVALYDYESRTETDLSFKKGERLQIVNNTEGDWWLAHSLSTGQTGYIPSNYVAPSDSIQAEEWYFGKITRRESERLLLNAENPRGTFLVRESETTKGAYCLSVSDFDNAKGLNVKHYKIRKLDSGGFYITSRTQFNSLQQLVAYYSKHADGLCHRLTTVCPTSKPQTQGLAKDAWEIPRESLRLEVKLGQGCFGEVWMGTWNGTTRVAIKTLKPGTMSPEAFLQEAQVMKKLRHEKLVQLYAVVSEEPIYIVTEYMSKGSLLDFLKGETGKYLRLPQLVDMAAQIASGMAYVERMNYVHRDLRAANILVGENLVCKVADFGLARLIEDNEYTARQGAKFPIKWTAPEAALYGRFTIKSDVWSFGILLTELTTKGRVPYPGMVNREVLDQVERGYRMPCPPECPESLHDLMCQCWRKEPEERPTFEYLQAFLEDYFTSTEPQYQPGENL
Structure (SMILES),IC50 ([1]; read-out: Log IC50 (converted)),Log IC50 [2],IC50 [3],ΔTm [4],ΔTm [5],ΔTm [6],ΔTm [7],ΔTm [8],ΔTm [9],ΔTm [10],ΔTm [11],ΔTm [12],ΔTm [13],IC50 ([1]; read-out: IC50),Ki [14],Ki [15],IC50 [16],IC50 [17],IC50 [18],IC50 [19]
N#CCCc1ccc2c(c1)-c1[nH]c3ccc([N+](=O)[O-])cc3c1CC(=O)N2 [ALSTERPAULLONE 2],100 nM,-7,316 nM,2.3 °C,0.5 °C,1.4 °C,1.6 °C,11.8 °C,0.9 °C,0.8 °C,0.8 °C,1.8 °C,5.9 °C,–,–,–,–,–,–,–
Nc1n[nH]c2nc3ccccc3nc12 [QUINOXALINE1],–,–,–,0.2 °C,0.2 °C,1.4 °C,0.4 °C,2.2 °C,0.1 °C,0.3 °C,-0.3 °C,2 °C,0.8 °C,1000 nM,–,–,–,–,–,–
O=S(=O)(c1cccc2c(Cl)cccc12)N1CCCNCC1,–,–,–,-0.8 °C,0.3 °C,0.6 °C,0.1 °C,0.2 °C,-0.3 °C,0 °C,0 °C,-0.1 °C,0.9 °C,–,3800 nM,54000 nM,–,–,–,–
NCCNc1ncc(C(N)=O)c(Nc2cccc(C(F)(F)F)c2)n1,–,–,–,0.6 °C,0.6 °C,1.6 °C,5.9 °C,8.1 °C,5.1 °C,1.6 °C,2 °C,0.1 °C,0.7 °C,–,–,–,5100 nM,–,–,–
CCN(CC)CCNC(=O)c1c(C)[nH]c(/C=C2\C(=O)Nc3ccc(Cl)cc32)c1C [SU-11652],–,–,–,7.9 °C,0.2 °C,5.8 °C,3.8 °C,3.8 °C,6.3 °C,2.4 °C,-0.8 °C,7.5 °C,10.2 °C,–,–,–,–,10 nM,–,–
O=C1Cc2c([nH]c3ccc(Br)cc23)-c2ccccc2N1 [KENPAULLONE],–,–,–,2 °C,-0.1 °C,0.1 °C,0.4 °C,10.5 °C,-0.3 °C,0.4 °C,0.4 °C,1.7 °C,4.9 °C,–,–,–,–,–,20000 nM,–
NCCNS(=O)(=O)c1cccc2c(Cl)cccc12,–,–,–,0.3 °C,-0.1 °C,0.3 °C,0.4 °C,0.1 °C,-0.3 °C,-0.1 °C,-0.4 °C,0.1 °C,0.4 °C,–,7400 nM,–,–,–,–,–
CN1CCc2[nH]c(=S)c(C#N)c(-c3cccs3)c2C1,–,–,–,3.8 °C,11.1 °C,6.2 °C,0.2 °C,4 °C,-0.2 °C,-0.2 °C,0 °C,5.9 °C,–,–,–,–,–,–,–,1400 nM
